For 31 compounds, Activity and selectivity ratio results are on record in ChEMBL document CHEMBL1914304 (J Med Chem, 2011).

For one data set, the system named is HepG2. In words: Cytotoxicity against human HepG2 cells after 72 hrs by luminescence assay. In kind it is cell-based. The note with it: hepg2, 72 h.
For the next data set, the system named is Raji. In words: Cytotoxicity against human Raji cells after 72 hrs by luminescence assay. In kind it is cell-based.
The subject of the next data set is BJ. In words: Cytotoxicity against human BJ cells after 72 hrs by luminescence assay. In kind it is cell-based.
The next data set deals with HEK293. In words: Cytotoxicity against human HEK293 cells after 72 hrs by luminescence assay. The note with it: hek293, 72 h. In kind it is cell-based.
The nature of data set [1]: Selectivity ratio of EC50 for human HepG2 cells to EC50 for Plasmodium falciparum.

Molecules are shown by their SMILES. Where only a bound is given, the exact number is not on record here.

Take `Cl.O=C(CCc1ccc(F)cc1)c1cc(F)ccc1OCC(O)CN1CCN(c2ccc(Cl)c(Cl)c2)CC1` (racemic): the Activity result in the data set with HepG2, in the data set with Raji, in the data set with BJ and in the data set on HEK293 was “Non-toxic” in each case. The selectivity ratio in data set [1] was more than 10.
With `Cl.O=C(CCc1ccccc1)c1cc(F)ccc1OCC(O)CN(C1CCCCC1)C1CCCCC1` (racemic), the Activity result in the data set with HepG2, in the data set on Raji, in the data set with BJ and in the data set with HEK293 was “Non-toxic” throughout. For the same compound, the selectivity ratio in data set [1] is more than 10.
As to `CCN1CCN(CC(O)COc2ccccc2C(=O)CCc2ccccc2)CC1.Cl` (racemic), the Activity result with HepG2, in the data set on Raji, with BJ and in the data set with HEK293 was “Non-toxic” in each case. Also, the selectivity ratio in data set [1] was more than 10.
As to `COc1cccc(N(CC(O)COc2ccc(F)cc2C(=O)CCc2ccc(F)cc2)c2ccccc2)c1.Cl` (racemic), the Activity entry in the data set on HepG2, in the data set with Raji, with BJ and in the data set on HEK293 was “Non-toxic” in each case. Also, the selectivity ratio in data set [1] was more than 10.
On to `Cl.O=C(CCc1ccc(F)cc1)c1ccccc1OCC(O)CN1CCN(c2ccc(Cl)cc2)CC1` (racemic), for which the Activity result with HepG2, with Raji, with BJ and in the data set with HEK293 was “Non-toxic” throughout. The selectivity ratio in data set [1] was more than 10.
Take `CN(CCc1ccccc1)CC(O)COc1ccccc1C(=O)CCc1ccccc1.Cl` (racemic): the Activity entry in the data set on HepG2, in the data set on Raji, with BJ and with HEK293 was “Non-toxic” each time. In data set [1], the selectivity ratio is more than 10.
Take `COc1cccc(N2CCN(CC(O)COc3ccccc3C(=O)CCc3ccccc3)CC2)c1.Cl` (racemic): the Activity entry in the data set with HepG2, with Raji, in the data set on BJ and in the data set with HEK293 was “Non-toxic” each time. Also, the selectivity ratio in data set [1] was more than 10.
With `Cl.O=C(CCc1ccc(F)cc1)c1cc(F)ccc1OCC(O)CN1CCN(c2ccc(Cl)cc2)CC1` (racemic), the Activity entry in the data set with HepG2, with Raji, in the data set on BJ and in the data set with HEK293 was “Non-toxic” each time. Further, the selectivity ratio in data set [1] was more than 10.
`COc1ccccc1N1CCN(CC(O)COc2ccc(F)cc2C(=O)CCc2ccccc2)CC1.Cl` (racemic): the Activity result in the data set with HepG2, in the data set on Raji, with BJ and with HEK293 was “Non-toxic” throughout. Moreover, the selectivity ratio in data set [1] is more than 10.
Take `Cl.O=C(CCc1ccccc1)c1cc(F)ccc1OCC(O)CN1CCN(c2ccccc2Cl)CC1` (racemic): the Activity result in the data set on HepG2, in the data set on Raji, with BJ and in the data set with HEK293 was “Non-toxic” throughout. In addition, the selectivity ratio in data set [1] was more than 10.
For `Cl.O=C(CCc1ccccc1)c1ccccc1OCC(O)CN1CCN(c2ccccc2F)CC1` (racemic), the Activity result with HepG2, in the data set on Raji, with BJ and with HEK293 was “Non-toxic” each time. For the same compound, the selectivity ratio in data set [1] was more than 10.
Regarding `Cc1cccc(N(CC(O)COc2ccc(F)cc2C(=O)CCc2ccc(F)cc2)c2ccccc2)c1.Cl` (racemic), the Activity result in the data set on HepG2, with Raji, with BJ and in the data set with HEK293 was “Non-toxic” throughout. Further, the selectivity ratio in data set [1] is more than 10.
For `CN1CCN(CC(O)COc2ccccc2C(=O)CCc2ccc(F)cc2)CC1.Cl` (racemic), the Activity result with HepG2, in the data set with Raji, in the data set with BJ and with HEK293 was “Non-toxic” throughout. Further, the selectivity ratio in data set [1] is more than 10.
Regarding `Cl.O=C(CCc1ccccc1)c1cc(F)ccc1OCC(O)CN1CCN(c2ccccc2)CC1` (racemic), the Activity result in the data set with HepG2, in the data set on Raji, with BJ and with HEK293 was “Non-toxic” throughout. In addition, the selectivity ratio in data set [1] is more than 10.
Take `CCN(CC)CC(O)COc1ccc(F)cc1C(=O)CCc1ccccc1.Cl` (racemic): the Activity entry in the data set on HepG2, in the data set on Raji, in the data set with BJ and with HEK293 was “Non-toxic” throughout. In addition, in data set [1], the selectivity ratio was more than 10.
With `CN1CCN(CC(O)COc2ccc(F)cc2C(=O)CCc2ccccc2)CC1.Cl` (racemic), the Activity result with HepG2, in the data set on Raji, in the data set on BJ and in the data set on HEK293 was “Non-toxic” in each case. Further, the selectivity ratio in data set [1] was more than 10.
`CC(C)c1nccn1CC(O)COc1ccc(F)cc1C(=O)CCc1ccccc1.Cl` (racemic): the Activity result in the data set on HepG2, in the data set on Raji, with BJ and in the data set with HEK293 was “Non-toxic” throughout. The selectivity ratio in data set [1] was more than 10.
`CCN(CC)CC(O)COc1ccc(F)cc1C(=O)CCc1ccc(F)cc1.Cl` (racemic): the Activity entry in the data set on HepG2, with Raji, in the data set with BJ and in the data set on HEK293 was “Non-toxic” throughout. Besides, in data set [1], the selectivity ratio was more than 10.
With `Cl.O=C(CCc1ccc(F)cc1)c1ccccc1OCC(O)CN1CCN(c2ccccc2)CC1` (racemic), the Activity entry in the data set on HepG2, in the data set on Raji, with BJ and in the data set on HEK293 was “Non-toxic” throughout. In addition, the selectivity ratio in data set [1] is more than 10.
Consider `Cl.O=C(CCc1ccccc1)c1cc(F)ccc1OCC(O)CN1CCC(O)(Cc2ccccc2)CC1` (racemic), for which the Activity entry with HepG2, in the data set with Raji, in the data set with BJ and with HEK293 was “Non-toxic” throughout. Further, the selectivity ratio in data set [1] was more than 10.
Turning to `Cl.O=C(CCc1ccccc1)c1ccccc1OCC(O)CN(C1CCCCC1)C1CCCCC1` (racemic), the Activity result with HepG2, in the data set with Raji, in the data set with BJ and in the data set with HEK293 was “Non-toxic” throughout. The selectivity ratio in data set [1] was more than 10.
With `CCN1CCN(CC(O)COc2ccc(F)cc2C(=O)CCc2ccccc2)CC1.Cl` (racemic), the Activity result in the data set with HepG2, in the data set with Raji, in the data set on BJ and in the data set on HEK293 was “Non-toxic” in each case. Besides, the selectivity ratio in data set [1] was more than 10.
For the compound `CC(C)c1nccn1CC(O)COc1ccc(F)cc1C(=O)CCc1ccc(F)cc1.Cl` (racemic), the Activity entry in the data set on HepG2, in the data set with Raji, in the data set with BJ and in the data set with HEK293 was “Non-toxic” throughout. Further, the selectivity ratio in data set [1] is more than 10.
Turning to `COc1ccc(N2CCN(CC(O)COc3ccc(F)cc3C(=O)CCc3ccc(F)cc3)CC2)cc1.Cl` (racemic), the Activity result in the data set with HepG2, with Raji, in the data set with BJ and with HEK293 was “Non-toxic” each time. Further, the selectivity ratio in data set [1] was more than 10.
In the case of `CCCN(CCC)CC(O)COc1ccc(F)cc1C(=O)CCc1ccccc1.Cl` (racemic), the Activity entry with HepG2, in the data set on Raji, with BJ and in the data set with HEK293 was “Non-toxic” in each case. For the same compound, the selectivity ratio in data set [1] was more than 10.
In the case of `Cc1ccccc1N1CCN(CC(O)COc2ccccc2C(=O)CCc2ccc(F)cc2)CC1.Cl` (racemic), the Activity result with HepG2, with Raji, in the data set with BJ and in the data set with HEK293 was “Non-toxic” each time. Also, the selectivity ratio in data set [1] is more than 10.
For `Cl.O=C(CCc1ccccc1)c1cc(F)ccc1OCC(O)CN(Cc1ccccc1)c1ccccc1` (racemic), the Activity result with HepG2, in the data set with Raji, in the data set on BJ and in the data set with HEK293 was “Non-toxic” in each case. Moreover, the selectivity ratio in data set [1] is more than 10.
`COc1ccccc1N1CCN(CC(O)COc2ccccc2C(=O)CCc2ccc(F)cc2)CC1.Cl` (racemic): the Activity result with HepG2, in the data set on Raji, in the data set with BJ and with HEK293 was “Non-toxic” throughout. In addition, the selectivity ratio in data set [1] is more than 10.
Consider `Cl.O=C(CCc1ccc(F)cc1)c1ccccc1OCC(O)CN1CCN(c2ccccc2F)CC1` (racemic), for which the Activity result in the data set with HepG2, with Raji, in the data set with BJ and in the data set on HEK293 was “Non-toxic” each time. In addition, the selectivity ratio in data set [1] was more than 10.
Consider `CC(C)(C)NCC(O)COc1ccccc1C(=O)CCc1ccccc1.Cl` (racemic), for which the Activity entry with HepG2, in the data set on Raji, in the data set with BJ and in the data set with HEK293 was “Non-toxic” each time. Moreover, in data set [1], the selectivity ratio is more than 10.
As to `Cl.O=C(CCc1ccc(F)cc1)c1ccccc1OCC(O)CN1CCN(C(=O)c2ccccc2)CC1` (racemic), the Activity entry in the data set on HepG2, in the data set with Raji, with BJ and in the data set on HEK293 was “Non-toxic” each time. The selectivity ratio in data set [1] was more than 10.
